Data on twelve compounds can be found in patent publication US9423396B2, “Bodipy structure fluorescence probes for diverse biological applications” (National University of Singapore, priority 2011, dated 2016).

This data set can be described thus: Spectroscopic measurements (absorption, emission, quantum yield, extinction coefficient). The data set is classed as physicochemical. Particulars: BDNCA library; for Abs: absorption; for ε: extinction coefficient, in M-1 cm-1 (unit assumed); for Flu: fluorescence emission; for Flu-Abs: difference emission minus absorption.

On to `CC1=CC(/C=C/C=C/c2ccc(N(C)C)cc2)=[N+]2C1=C(c1ccc(NC(=O)CCl)cc1)c1cccn1[B-]2(F)F` [BDNCA-96], for which the “Qunt. Yield” value is on record as “weak”, the Abs amounted to 622 nm, the ε is listed as 50,801 and the Flu result was “weak”.

As to `CC1=CC(/C=C/c2ccc(Br)s2)=[N+]2C1=C(c1ccc(NC(=O)CCl)cc1)c1cccn1[B-]2(F)F` [BDNCA-100], the “Qunt. Yield” value stood at 0.10, the Abs came to 574 nm, the Flu-Abs is listed as 23 and the ε is reported as 48,879. In addition, the Flu came to 597.

Regarding `CC1=CC(/C=C/c2ccc(Oc3ccccc3)cc2)=[N+]2C1=C(c1ccc(NC(=O)CCl)cc1)c1cccn1[B-]2(F)F` [BDNCA-101], the “Qunt. Yield” value was 0.20, the Abs was 562 nm, the Flu-Abs is reported as 27 and the ε is reported as 89,245. The compound further returned a Flu of 589.

Regarding `CC1=CC(/C=C/c2ccc3ccc4cccc5ccc2c3c45)=[N+]2C1=C(c1ccc(NC(=O)CCl)cc1)c1cccn1[B-]2(F)F` [BDNCA-103], the “Qunt. Yield” value is 0.04, the Abs was determined as 598 nm, the Flu-Abs came out at 82 and the ε was 28,558. In addition, the Flu turned out to be 680.

Turning to `CC1=CC(/C=C/c2cccc(O)c2)=[N+]2C1=C(c1ccc(NC(=O)CCl)cc1)c1cccn1[B-]2(F)F` [BDNCA-105], the “Qunt. Yield” value is on record as 0.06, the Abs was 556 nm, the Flu-Abs came to 19 and the ε is 38,719. This compound also displayed a Flu of 575.

In the case of `CCN(CC)c1ccc(/C=C/C2=[N+]3C(=C(c4ccc(NC(=O)CCl)cc4)c4cccn4[B-]3(F)F)C(C)=C2)cc1` [BDNCA-107], the “Qunt. Yield” value is “weak”, the Abs was determined as 624 nm, the ε is 56,018 and the Flu result was “weak”.

Consider `CC1=CC(/C=C/c2c(C)cc(C)cc2C)=[N+]2C1=C(c1ccc(NC(=O)CCl)cc1)c1cccn1[B-]2(F)F` [BDNCA-108], for which the “Qunt. Yield” value is given as 0.10, the Abs was 549 nm, the Flu-Abs is given as 33 and the ε is on record as 39,542. For the same compound, the Flu turned out to be 582.

Consider `COc1ccc(/C=C/c2cc(C)c3n2[B-](F)(F)[N+]2=CC=CC2=C3c2ccc(NC(=O)CCl)cc2)cc1` [BDNCA-110], for which the “Qunt. Yield” value is listed as 0.16, the Abs was found to be 566 nm, the Flu-Abs stood at 30 and the ε is given as 56,568. This compound also showed a Flu of 596.

For the compound `CC(=O)Nc1ccc(/C=C/C2=[N+]3C(=C(c4ccc(NC(=O)CCl)cc4)c4cccn4[B-]3(F)F)C(C)=C2)cc1` [BDNCA-111], the “Qunt. Yield” value is listed as 0.04, the Abs came to 570 nm, the Flu-Abs came out at 29 and the ε was 18,947. This compound registered a Flu of 599.

`CC(=O)OCCN(CCOC(C)=O)c1ccc(/C=C/C2=[N+]3C(=C(c4ccc(NC(=O)CCl)cc4)c4cccn4[B-]3(F)F)C(C)=C2)cc1` [BDNCA-114]: the “Qunt. Yield” value is on record as “weak”, the Abs was 608 nm, the ε is given as 42,288 and the Flu entry is listed as “weak”.

Consider `CC1=CC(/C=C/c2cc(Cl)ccc2O)=[N+]2C1=C(c1ccc(NC(=O)CCl)cc1)c1cccn1[B-]2(F)F` [BDNCA-121], for which the “Qunt. Yield” value amounted to 0.06, the Abs was 564 nm, the Flu-Abs stood at 21 and the ε is 39,817. In addition, the Flu came out at 585.

Regarding `CCOc1cccc(/C=C/C2=[N+]3C(=C(c4ccc(NC(=O)CCl)cc4)c4cccn4[B-]3(F)F)C(C)=C2)c1O` [BDNCA-126], the “Qunt. Yield” value stood at 0.01, the Abs was 563 nm, the Flu-Abs was 15 and the ε is reported as 37,071. The Flu was determined as 578.
